Laboratory results taken from patent US12357619B2, “Noradrenergic and specific serotonergic anxiolytic and antidepressant, method for the production and use thereof” (ALLA CHEM, LLC, priority 2020, dated 2025).
Like-named read-outs stand apart in the source and are kept apart here.

Key:
[1] = system: people with generalized anxiety disorder (GAD); experiment: Randomized double-blind placebo-controlled GAD study, Hamilton depression scale (HAMD); type: in vivo, human; settings: after 8 weeks
Procedure: (§1) Example 12. Efficacy and safety study of the oral drug of this invention made as a pharmaceutical composition of this invention in capsules. […] During the study, 3 scheduled visits were conducted in Week 2, Week 4, and Week 8 to assess the effectiveness and safety of the therapy as well as drug inventory and administration. During all of those visits, the patient's diary was checked, a drug inventory was made and the patients' compliance was assessed. In addition, adverse events, concomitant therapy, and vital signs were evaluated, urine drug screen was performed, and assessments using Hamilton Anxiety Rating Scale (HARS), Hamilton Depression Scale (HAMD), Clinical Global Impression-Severity (CGI-S), Clinical Global Impression-Improvement (CGI-I), and Visual Analog Scale (VAS) were made; women of child-bearing potential will take a urine pregnancy test. Also, during visits at Week 4 and Week 8 a physical examination was performed, body weight was measured, an ECG was performed in 12 leads and blood and urine samples were obtained for laboratory tests, namely: urinalysis and biochemical blood analysis, PK analysis before and 1 hour after taking the study drug (SD), and urinalysis. At Week 4, a blood sample was also obtained for genotyping by CYP2D6. […] During this time, a possible development of SD withdrawal syndrome against the background of placebo was evaluated. […]

[2] = system: people with generalized anxiety disorder (GAD); experiment: Randomized double-blind placebo-controlled GAD study, visual analog scale (VAS); type: in vivo, human; settings: after 8 weeks
Procedure: as §1

[3] = system: people with generalized anxiety disorder (GAD); experiment: Randomized double-blind placebo-controlled GAD study, clinical global impression-severity (CGI-S); type: in vivo, human; settings: after 8 weeks
Procedure: as §1

Adrenergic α1A = biological target: T1, Adrenergic α1A (Homo sapiens, UniProt P35348); experiment: Receptor activities, Ki (Table 1); type: binding
T1 sequence (P35348 1-466): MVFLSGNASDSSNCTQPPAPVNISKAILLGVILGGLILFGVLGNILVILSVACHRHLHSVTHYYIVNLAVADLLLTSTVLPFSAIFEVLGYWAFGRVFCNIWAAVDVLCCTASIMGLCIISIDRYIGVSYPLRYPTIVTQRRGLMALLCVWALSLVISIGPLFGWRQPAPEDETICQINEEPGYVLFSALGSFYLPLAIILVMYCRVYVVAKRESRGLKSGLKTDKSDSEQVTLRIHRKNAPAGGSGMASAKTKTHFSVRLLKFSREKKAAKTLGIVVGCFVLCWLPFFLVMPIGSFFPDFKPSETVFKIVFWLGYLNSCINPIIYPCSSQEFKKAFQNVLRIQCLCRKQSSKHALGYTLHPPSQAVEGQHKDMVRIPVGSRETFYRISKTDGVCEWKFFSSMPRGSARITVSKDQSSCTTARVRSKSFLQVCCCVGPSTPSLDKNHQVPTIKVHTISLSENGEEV

Serotonin 5-HT7 = Serotonin 5-HT7 (Homo sapiens, UniProt P34969); experiment: Receptor activities, Ki (Table 1); type: binding
healthy volunteers = experiment: Safety, single oral administration of capsules in healthy volunteers (Example 10); type: in vivo, human
Procedure: Example 10. Clinical study of the safety of the oral drug of this invention. An open-label clinical trial of the pharmacokinetics of the antipsychotic drug made as a pharmaceutical composition of this invention in capsules, was conducted with a single oral administration in 32 healthy volunteers at doses of 2 mg/day (cohort 1, 8 volunteers), 4 mg/day (cohort 1, 8 volunteers), 10 mg/day (cohort 1, 8 volunteers), and 20 mg/day (cohort 1, 8 volunteers), expressed as base A, in accordance with the recommendations of “Good clinical practice (GCP)” on physically and mentally healthy men aged 20-50 years with a body mass index of […].

[4] = Pharmacokinetics, single and multiple dosing of capsules in volunteers (Example 11); type: in vivo, human; settings: for half-life / Tmax: human, in vivo, oral
Procedure: Example 11. Safety study of increasing doses of the oral drug of this invention made as a pharmaceutical composition of this invention in capsules. Clinical safety study of increasing doses of the antipsychotic drug made as a pharmaceutical composition of this invention in capsules for single and multiple dosing. The study covered one cohort of 4 volunteers taking antipsychotic drug once at a dose of 20 mg, and then at the same dose 2 times a day for 4 days. Based on the three-week safety data obtained in the 20-mg cohort taking antipsychotic drug twice a day, the independent safety data monitoring Committee took a decision to involve a second cohort of 4 volunteers, in which the antipsychotic drug under test was taken once at a dose of 20 mg and then 3 times a day for 4 days at the same dose.

[5] = single doses of 2, 4, 10, and 20 mg, healthy volunteers

Sequence of Serotonin 5-HT7 (P34969 whole entry): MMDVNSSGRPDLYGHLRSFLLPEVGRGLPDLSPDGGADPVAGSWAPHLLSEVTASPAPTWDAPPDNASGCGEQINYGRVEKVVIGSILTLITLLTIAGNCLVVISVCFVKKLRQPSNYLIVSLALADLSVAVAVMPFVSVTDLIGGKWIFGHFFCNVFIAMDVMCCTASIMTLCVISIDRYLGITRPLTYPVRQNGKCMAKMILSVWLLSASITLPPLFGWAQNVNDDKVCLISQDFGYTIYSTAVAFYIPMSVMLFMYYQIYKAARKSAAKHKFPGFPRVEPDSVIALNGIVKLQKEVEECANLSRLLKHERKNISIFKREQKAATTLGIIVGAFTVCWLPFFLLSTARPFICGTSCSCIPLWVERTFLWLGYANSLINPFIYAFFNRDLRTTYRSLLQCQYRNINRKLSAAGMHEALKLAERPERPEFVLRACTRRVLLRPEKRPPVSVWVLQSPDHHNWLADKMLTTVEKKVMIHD

## Cc1ccc2c(c1)c1c(n2CCc2ccccc2)CCN(C)C1.Cl [A•HCl, 2,8-dimethyl-5-(2-phenylethyl)-2,3,4,5-tetrahydro-1H-pyrido[4,3-b]indole hydrochloride]
[1]; 40 mg, N = 42, average at Week 0 10.9
  HAMD average change (standard error): −5.2 (0.57)
[1]; 60 mg, N = 44, average at Week 0 10.9
  HAMD average change (standard error): −4.4 (0.56)
[2]; 40 mg, N = 42, average at Week 0 24.1
  VAS average change (standard error): −9.5 (3.24)
[2]; 60 mg, N = 44, average at Week 0 27.4
  VAS average change (standard error): −11.1 (3.23)
[3]; 40 mg, N = 42, average at Week 0 4.24
  CGI-S average change (standard error): −1.34 (0.19)
[3]; 60 mg, N = 44, average at Week 0 4.28
  CGI-S average change (standard error): −1.21 (0.19)
Adrenergic α1A
  Ki: 30.2 nM
Serotonin 5-HT7
  Ki: 0.153 nM
Healthy volunteers; 20-mg cohort, single dose
  Side effects observed: drowsiness, agitation and paresthesia
Healthy volunteers; [5]
  Effect on the parameters of plasma and urine: neither significantly affect the parameters of plasma and urine
  Tolerability: well tolerated
[4]; 40-mg cohort
  Accumulation factor (Fc): 2.5
[4]; 60-mg cohort
  Accumulation factor (Fc): 2.1
[4]; 20 mg, single dose, 40-mg cohort
  half-life: 10.3 ± 5.4 h
[4]; 20 mg, single dose, 40-mg cohort, read-out: Tmax, median
  Tmax: 0.75 h
[4]; 20 mg, single dose, 60-mg cohort
  half-life: 7.3 ± 2.6 h
[4]; 20 mg, single dose, 60-mg cohort, read-out: Tmax, median
  Tmax: 2.3 h
[4]; 20 mg, single dose, majority of volunteers, read-out: Tmax, variation
  Tmax: 0.5 to 4 h
[4]; 40 mg/day, repeated doses, 40-mg cohort, read-out: Tmax, median
  Tmax: 0.38 h
[4]; 60 mg/day, repeated doses, 60-mg cohort, read-out: Tmax, median
  Tmax: 1 h
[4]; multiple dosing
  Time to stabilization of the residual concentration after the start of regular drug administration: 1 to 2 days
[4]; repeated doses
  Tmax, variability range: 0.3 to 4 h
[4]; repeated vs single administration
  Increase in T1/2 after repeated administration, on an average: 1.4 times
